According to ChEMBL document CHEMBL1141841, “Biotransformation of the trichoderma metabolite 6-n-pentyl-2H-pyran-2-one (6PAP) by selected fungal isolates” (J Nat Prod, 1999):
Calls of active or inactive are those of the source. The rule behind the calls is not given here.

What follows are compounds tested on Botrytis cinerea (assay: Antimicrobial activity against Botrytis cinerea by spore germination assay).
Assay type: functional, organism-based
For `O=c1cccc(CCCCCO)o1`, the Activity was “inactive”.
With `CCCCCc1cccc(=O)o1` the Activity was “Active”.
For `O=C(O)CCCCc1cccc(=O)o1`, the Activity was “inactive”.
In the case of `CC(O)CCCc1cccc(=O)o1` (stereo not given), the Activity is reported as “inactive”.
For `O=C(O)CCc1cccc(=O)o1`, the Activity was “inactive”.
